# Source: PMC12058161, “The plant matrix of Artemisia annua L. for the treatment of malaria: Pharmacodynamic and pharmacokinetic studies” (PLOS One, 2025)
# Where “and” joins values, the source holds several entries; their conditions need not be identical. Equal entries are not always repeated. Where two headings read alike, the source gives them in different places.
# Tests used:
# [1] = tested on: Plasmodium yoelii (P. yoelii); assay: Peters' four-day inhibition method, P. yoelii murine malaria model; assay type: in vivo, ICR mice; settings: individual mice
# Protocol: In vivo evaluation of antimalarial activity was performed using the classical Peters’ four-day inhibition method. A murine malaria model was constructed by intraperitoneal injection of 5.00 × 10^7 Plasmodium yoelii (P. yoelii)- or Plasmodium berghei (P. berghei)-infected erythrocytes. […] Mice were gavaged once 4 hours after infection with medicated soybean oil or the test drug (gavage standard was 0.20 mL/10 g), and the drug was administered orally for 4 consecutive days. Four hours after the last dose, blood was collected from the tail tip of the mice to make a thin blood smear. The smear was air-dried, fixed in methanol, stained with Giemsa for 30 minutes, then rinsed with distilled water, air-dried at room temperature, and visualized for malaria infection under a microscope (OLYMPUS BX43) at 100x oil immersion. The inhibition ratio (%) for each group was calculated using the following equations:
# Inhibitionratio(%)=(infectionratiocontrolgroup−infectionratiotreatmentgroup)/infectionratiocontrolgroup×100
# in vivo = settings: male, Sprague Dawley, rat, po; for MRT last: MRT(0-t); for MRT inf: MRT(0-∞)
# Protocol: (§1) Blood samples were centrifuged at 3500 rpm for 5 min at 4°C. All plasma samples were then stored at -80°C until analysis.
# (§2) All samples were stored in a refrigerator at -80°C and thawed at room temperature before processing. A 50 μL aliquot of plasma was added with 5 μL of the standard solution (or acetonitrile) and 100 μL of internal standard solution in turn, vortexed and mixed, then sonicated for 3 min, centrifuged at 14000 rpm for 10 min at low temperature. The supernatant was transferred to an autosampler vial and analyzed by UHPLC-ESI-MS/MS.
# (§3) The mobile phase consisted of 0.1% formic acid solution (A) and acetonitrile (B).
# (§4) The ESI ionization source was used and detected in MRM mode.
# (§5) All data were presented as mean ± SD. Pharmacokinetic parameters including half-life (t1/2), maximum plasma time (Tmax) and concentration (Cmax), area under concentration-time curve (AUC0-t and AUC0-∞), clearance (CL), steady-state volume of distribution (Vz), and mean residence time (MRT) were analyzed by non-compartmental method using DAS Version 2.0 (Chinese Pharmacological Society, Beijing, China). […] The data were analyzed by Student’s t-test for two groups and one-way analysis of variance for multiple groups; p < 0.05 was considered statistically significant.
# Caco-2 cells = assay: Cytotoxicity in Caco-2 cells, CCK-8 assay; assay type: cell-based, human; settings: for Cell survival rate%: mean; for cck-8 mean (survival fraction): mean of 6
# Procedure, shortened: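 Caco-2 cells, pre-grown 48 h, were exposed to compounds for 48 h at 37 °C with 0.05% v/v DMSO final. Viability was measured by CCK-8 (2 h, absorbance 450 nm) relative to negative-control cells.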
# [2] = male, Sprague Dawley, rat, in vivo
# Protocol: as §1, §2, §3, §4, §5
# [3] = Stability of the five compounds in SD rat plasma (QC samples, UHPLC-ESI-MS/MS); assay type: in vitro ADME; settings: for 3 freeze-thaw cycles mean ± SD / 7 days at -80°C mean ± SD / Room temperature 24h mean ± SD: SD rat plasma QC sample; for stability, Accuracy (measured versus nominal concentration) / stability, mean ± SD (measured concentration): SD rat plasma, n=5
# [4] = Caco-2, concentration 10 μmol/L
# [5] = Caco-2, concentration 20 μmol/L
# [6] = Caco-2, concentration 40 μmol/L
# [7] = Caco-2, concentration 80 μmol/L
# [8] = nominal 40 ng/mL, 3 freeze-thaw cycles
# [9] = nominal 40 ng/mL, 7 days at -80°C
# [10] = nominal 1000 ng/mL, 3 freeze-thaw cycles
# [11] = nominal 1000 ng/mL, 7 days at -80°C
# [12] = nominal 5000 ng/mL, 3 freeze-thaw cycles
# [13] = nominal 5000 ng/mL, 7 days at -80°C
# [14] = nominal 40 ng/mL, Room temperature 24h
# [15] = nominal 1000 ng/mL, Room temperature 24h
# [16] = nominal 5000 ng/mL, Room temperature 24h
smiles,measurement,setting,value
"C[C@@H]1CC[C@H]2[C@@H](C)C(=O)O[C@@H]3O[C@@]4(C)CC[C@@H]1[C@]32OO4 [ART, Artemisinin, reference compound]",parasitemia%,[1]; 5.68 mg/kg,70.2912% and 67.0337% and 68.4147% and 69.5326% and 69.0526%
same,parasitemia%,[1]; 11.368 mg/kg,34.1852% and 49.4174% and 42.0754% and 41.1875% and 34.5379%
same,parasitemia%,[1]; 22.736 mg/kg,1.979% and 6.804% and 2.98% and 0.248% and 3.003%
same,AUC(0-inf),in vivo; 100 mg/kg,418 ± 133 ng·h/mL
same,AUC(0-t),in vivo; 100 mg/kg,386 ± 128 ng·h/mL
same,MRT last,in vivo; 100 mg/kg,1.18 ± 0.255 h
same,MRT inf,in vivo; 100 mg/kg,1.67 ± 0.333 h
same,AUC(0-inf),in vivo; 352 mg/kg,816 ± 383 ng·h/mL
same,AUC(0-t),in vivo; 352 mg/kg,763 ± 345 ng·h/mL
same,Cmax,"in vivo; 352 mg/kg, Cmax",513 ± 186 ng/mL
same,MRT last,in vivo; 352 mg/kg,1.71 ± 0.513 h
same,MRT inf,in vivo; 352 mg/kg,2.54 ± 0.785 h
same,Tmax,"in vivo; 352 mg/kg, Tmax",0.388 ± 0.328 h
same,"Cell survival rate%, single replicate","Caco-2 cells; Caco-2, 5μmol/L",82.52% and 83.77% and 87.9% and 78.48% and 85.79% and 77.82%
same,"Cell survival rate%, single replicate","Caco-2 cells; Caco-2, 10μmol/L",91.57% and 89.14% and 82.1% and 68.6% and 78.83% and 84.29%
same,"Cell survival rate%, single replicate","Caco-2 cells; Caco-2, 20μmol/L",80.46% and 80.92% and 80.32% and 81.46% and 82.88% and 85.89%
same,"Cell survival rate%, single replicate","Caco-2 cells; Caco-2, 40μmol/L",70.44% and 87.86% and 77.89% and 75.6% and 92.55% and 87.29%
same,"Cell survival rate%, single replicate","Caco-2 cells; Caco-2, 80μmol/L",82.12% and 82.82% and 84.32% and 77.9% and 76.8% and 84.01%
same,"cck-8 cell survival as fraction, single replicate","Caco-2 cells; Caco-2, concentration 5 μmol/L",0.8252 and 0.8377 and 0.879 and 0.7848 and 0.8579 and 0.7782
same,Cell survival rate%,"Caco-2 cells; Caco-2, concentration 5 μmol/L",82.71%
same,cck-8 mean (survival fraction),"Caco-2 cells; Caco-2, concentration 5 μmol/L",0.827
same,"cck-8 cell survival as fraction, single replicate",Caco-2 cells; [4],0.9157 and 0.8914 and 0.821 and 0.686 and 0.7883 and 0.8429
same,Cell survival rate%,Caco-2 cells; [4],82.42%
same,cck-8 mean (survival fraction),Caco-2 cells; [4],0.824
same,"cck-8 cell survival as fraction, single replicate",Caco-2 cells; [5],0.8046 and 0.8092 and 0.8032 and 0.8146 and 0.8288 and 0.8589
same,Cell survival rate%,Caco-2 cells; [5],81.99%
same,cck-8 mean (survival fraction),Caco-2 cells; [5],0.820
same,"cck-8 cell survival as fraction, single replicate",Caco-2 cells; [6],0.7044 and 0.8786 and 0.7789 and 0.756 and 0.9255 and 0.8729
same,Cell survival rate%,Caco-2 cells; [6],81.94%
same,cck-8 mean (survival fraction),Caco-2 cells; [6],0.819
same,"cck-8 cell survival as fraction, single replicate",Caco-2 cells; [7],0.8212 and 0.8282 and 0.8432 and 0.779 and 0.768 and 0.8401
same,Cell survival rate%,Caco-2 cells; [7],81.33%
same,cck-8 mean (survival fraction),Caco-2 cells; [7],0.813
same,plasma concentration (plasma concentration-time curve),[2]; 0.08 h,180.137
same,plasma concentration (plasma concentration-time curve),[2]; 0.5 h,247.263
same,plasma concentration (plasma concentration-time curve),[2]; 1 h,173.84
same,plasma concentration (plasma concentration-time curve),[2]; 1.5 h,81.963
same,plasma concentration (plasma concentration-time curve),[2]; 2 h,51.011
same,plasma concentration (plasma concentration-time curve),[2]; 3 h,33.992
same,plasma concentration (plasma concentration-time curve),[2]; 4 h,27.897
same,Vz,"[2]; po, 100 mg/kg",0.08 ± 0.03 L
same,CL,"[2]; po, 352 mg/kg",0.032 ± 0.018 L/h
same,Vz,"[2]; po, 352 mg/kg",0.061 ± 0.008 L
same,"Stability in plasma, measured concentration (mean ± SD)","[3]; 3 freeze-thaw cycles, QC concentration 40 ng/mL",38.5 ± 2.35 ng/mL
same,"Stability in plasma, measured concentration (mean ± SD)","[3]; 3 freeze-thaw cycles, QC concentration 1000 ng/mL",1053 ± 29.9 ng/mL
same,"Stability in plasma, measured concentration (mean ± SD)","[3]; 3 freeze-thaw cycles, QC concentration 5000 ng/mL",4629 ± 113 ng/mL
same,"Stability in plasma, measured concentration (mean ± SD)","[3]; 7 days at -80°C, QC concentration 40 ng/mL",40.3 ± 0.80 ng/mL
same,"Stability in plasma, measured concentration (mean ± SD)","[3]; 7 days at -80°C, QC concentration 1000 ng/mL",1051 ± 29.5 ng/mL
same,"Stability in plasma, measured concentration (mean ± SD)","[3]; 7 days at -80°C, QC concentration 5000 ng/mL",4673 ± 65.9 ng/mL
same,"Stability, measured concentration, mean ± SD","[3]; QC sample 40 ng/mL, 3 freeze-thaw cycles",38.5 ± 2.35 ng/mL
same,"Stability, measured concentration, mean ± SD","[3]; QC sample 40 ng/mL, 7 days at -80°C",40.3 ± 0.80 ng/mL
same,"Stability, measured concentration, mean ± SD","[3]; QC sample 40 ng/mL, Room temperature 24h",41.1 ± 1.49 ng/mL
same,"Stability, measured concentration, mean ± SD","[3]; QC sample 1000 ng/mL, 3 freeze-thaw cycles",1053 ± 29.9 ng/mL
same,"Stability, measured concentration, mean ± SD","[3]; QC sample 1000 ng/mL, 7 days at -80°C",1051 ± 29.5 ng/mL
same,"Stability, measured concentration, mean ± SD","[3]; QC sample 1000 ng/mL, Room temperature 24h",1070 ± 40.9 ng/mL
same,"Stability, measured concentration, mean ± SD","[3]; QC sample 5000 ng/mL, 3 freeze-thaw cycles",4629 ± 113 ng/mL
same,"Stability, measured concentration, mean ± SD","[3]; QC sample 5000 ng/mL, 7 days at -80°C",4673 ± 65.9 ng/mL
same,"Stability, measured concentration, mean ± SD","[3]; QC sample 5000 ng/mL, Room temperature 24h",5229 ± 418 ng/mL
same,"Stability in plasma, measured concentration (mean ± SD)","[3]; Room temperature 24h, QC concentration 40 ng/mL",41.1 ± 1.49 ng/mL
same,"Stability in plasma, measured concentration (mean ± SD)","[3]; Room temperature 24h, QC concentration 1000 ng/mL",1070 ± 40.9 ng/mL
same,"Stability in plasma, measured concentration (mean ± SD)","[3]; Room temperature 24h, QC concentration 5000 ng/mL",5229 ± 418 ng/mL
same,3 freeze-thaw cycles mean ± SD,[3]; [8],38.5 ± 2.35 ng/mL
same,7 days at -80°C mean ± SD,[3]; [9],40.3 ± 0.80 ng/mL
same,Room temperature 24h mean ± SD,[3]; nominal 40 ng/mL,41.1 ± 1.49 ng/mL
same,3 freeze-thaw cycles mean ± SD,[3]; [10],1053 ± 29.9 ng/mL
same,7 days at -80°C mean ± SD,[3]; [11],1051 ± 29.5 ng/mL
same,Room temperature 24h mean ± SD,[3]; nominal 1000 ng/mL,1070 ± 40.9 ng/mL
same,3 freeze-thaw cycles mean ± SD,[3]; [12],4629 ± 113 ng/mL
same,7 days at -80°C mean ± SD,[3]; [13],4673 ± 65.9 ng/mL
same,Room temperature 24h mean ± SD,[3]; nominal 5000 ng/mL,5229 ± 418 ng/mL
same,"stability, Accuracy (measured versus nominal concentration)",[3]; [8],96.14%
same,"stability, mean ± SD (measured concentration)",[3]; [8],38.5 ± 2.35 ng/mL and 38.46 ng/mL
same,"stability, Accuracy (measured versus nominal concentration)",[3]; [9],100.80%
same,"stability, mean ± SD (measured concentration)",[3]; [9],40.3 ± 0.80 ng/mL and 40.32 ng/mL
same,"stability, Accuracy (measured versus nominal concentration)",[3]; [14],102.70%
same,"stability, mean ± SD (measured concentration)",[3]; [14],41.1 ± 1.49 ng/mL and 41.08 ng/mL
same,"stability, Accuracy (measured versus nominal concentration)",[3]; [10],105.28%
same,"stability, mean ± SD (measured concentration)",[3]; [10],1053 ± 29.9 ng/mL and 1052.79 ng/mL
same,"stability, Accuracy (measured versus nominal concentration)",[3]; [11],105.14%
same,"stability, mean ± SD (measured concentration)",[3]; [11],1051 ± 29.5 ng/mL and 1051.42 ng/mL
same,"stability, Accuracy (measured versus nominal concentration)",[3]; [15],106.95%
same,"stability, mean ± SD (measured concentration)",[3]; [15],1070 ± 40.9 ng/mL and 1069.53 ng/mL
same,"stability, Accuracy (measured versus nominal concentration)",[3]; [12],92.59%
same,"stability, mean ± SD (measured concentration)",[3]; [12],4629 ± 113 ng/mL and 4629.47 ng/mL
same,"stability, Accuracy (measured versus nominal concentration)",[3]; [13],93.45%
same,"stability, mean ± SD (measured concentration)",[3]; [13],4673 ± 65.9 ng/mL and 4672.51 ng/mL
same,"stability, Accuracy (measured versus nominal concentration)",[3]; [16],104.57%
same,"stability, mean ± SD (measured concentration)",[3]; [16],5229 ± 418 ng/mL and 5228.53 ng/mL
